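Compound exposure: 48 hours, 5 concentrations, 96-well plates. At the GI50, growth is halved.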 Activity calls are given as the source filed them. Cut-off read from the data, not from the text of the source: active = GI50 up to about 1.1 µM and inactive = higher.
Assays:
Assay in all cases: NCI-60 cell line screen, 48 h
786-0 = tested on: 786-0
A498 = tested on: A498
A549 = tested on: A549
ACHN = tested on: ACHN
BT-549 = tested on: BT-549
CAKI-1 = tested on: CAKI-1
CCRF-CEM = tested on: CCRF-CEM
COLO 205 = tested on: COLO 205
DU-145 = tested on: DU-145
EKVX = tested on: EKVX
HCC 2998 = tested on: HCC 2998
HCT-116 = tested on: HCT-116
HCT-15 = tested on: HCT-15
HL-60 = tested on: HL-60
HOP-62 = tested on: HOP-62
HT-29 = tested on: HT-29
Hs-578T = tested on: Hs-578T
IGROV-1 = tested on: IGROV-1
K562 = tested on: K562
KM12 = tested on: KM12
LOX IMVI = tested on: LOX IMVI
M14 = tested on: M14
MCF7 = tested on: MCF7
MDA-MB-231 = tested on: MDA-MB-231
MDA-MB-435 = tested on: MDA-MB-435
MDA-N = tested on: MDA-N
MOLT-4 = tested on: MOLT-4
Malme-3M = tested on: Malme-3M
NCI-H226 = tested on: NCI-H226
NCI-H23 = tested on: NCI-H23
NCI-H460 = tested on: NCI-H460
NCI-H522 = tested on: NCI-H522
OVCAR-8 = tested on: OVCAR-8
PC-3 = tested on: PC-3
RPMI-8226 = tested on: RPMI-8226
SF-268 = tested on: SF-268
SF-295 = tested on: SF-295
SF-539 = tested on: SF-539
SK-MEL-28 = tested on: SK-MEL-28
SK-MEL-5 = tested on: SK-MEL-5
SK-OV-3 = tested on: SK-OV-3
SN12C = tested on: SN12C
SNB-19 = tested on: SNB-19
SNB-75 = tested on: SNB-75
SR = tested on: SR
SW-620 = tested on: SW-620
T47D = tested on: T47D
TK-10 = tested on: TK-10
UACC-257 = tested on: UACC-257
UACC-62 = tested on: UACC-62
UO-31 = tested on: UO-31
HOP-92 = tested on: HOP-92
NCI/ADR-RES = tested on: NCI/ADR-RES
OVCAR-3 = tested on: OVCAR-3
OVCAR-4 = tested on: OVCAR-4
OVCAR-5 = tested on: OVCAR-5
RXF 393 = tested on: RXF 393
U-251 = tested on: U-251

O=S(=O)(NC1CCCCC1)c1ccc2c(c1)OCCOCCOCCOCCO2
GI50 (786-0): > 100 µM (inactive)
GI50 (A498): > 100 µM (inactive)
GI50 (A549): > 100 µM (inactive)
GI50 (ACHN): > 100 µM (inactive)
GI50 (BT-549): > 100 µM (inactive)
GI50 (CAKI-1): > 100 µM (inactive)
GI50 (CCRF-CEM): > 100 µM (inactive)
GI50 (COLO 205): > 100 µM (inactive)
GI50 (DU-145): > 100 µM (inactive)
GI50 (EKVX): > 100 µM (inactive)
GI50 (HCC 2998): > 100 µM (inactive)
GI50 (HCT-116): > 100 µM (inactive)
GI50 (HCT-15): > 100 µM
GI50 (HL-60): > 100 µM (inactive)
GI50 (HOP-62): > 100 µM (inactive)
GI50 (HT-29): > 100 µM (inactive)
GI50 (Hs-578T): > 100 µM (inactive)
GI50 (IGROV-1): > 100 µM (inactive)
GI50 (K562): > 100 µM (inactive)
GI50 (KM12): > 100 µM (inactive)
GI50 (LOX IMVI): > 100 µM (inactive)
GI50 (M14): > 100 µM (inactive)
GI50 (MCF7): > 100 µM (inactive)
GI50 (MDA-MB-231): > 100 µM (inactive)
GI50 (MDA-MB-435): > 100 µM (inactive)
GI50 (MDA-N): > 100 µM (inactive)
GI50 (MOLT-4): > 100 µM (inactive)
GI50 (Malme-3M): > 100 µM (inactive)
GI50 (NCI-H226): > 100 µM (inactive)
GI50 (NCI-H23): > 100 µM (inactive)
GI50 (NCI-H460): > 100 µM (inactive)
GI50 (NCI-H522): > 100 µM (inactive)
GI50 (OVCAR-8): > 100 µM (inactive)
GI50 (PC-3): > 100 µM (inactive)
GI50 (RPMI-8226): > 100 µM (inactive)
GI50 (SF-268): > 100 µM (inactive)
GI50 (SF-295): > 100 µM (inactive)
GI50 (SF-539): > 100 µM (inactive)
GI50 (SK-MEL-28): > 100 µM (inactive)
GI50 (SK-MEL-5): > 100 µM (inactive)
GI50 (SK-OV-3): > 100 µM (inactive)
GI50 (SN12C): > 100 µM (inactive)
GI50 (SNB-19): > 100 µM (inactive)
GI50 (SNB-75): > 100 µM (inactive)
GI50 (SR): > 100 µM (inactive)
GI50 (SW-620): > 100 µM (inactive)
GI50 (T47D): > 100 µM (inactive)
GI50 (TK-10): > 100 µM (inactive)
GI50 (UACC-257): > 100 µM (inactive)
GI50 (UACC-62): > 100 µM (inactive)
GI50 (UO-31): > 100 µM (inactive)

CCCCn1c(-c2ccc([N+](=O)[O-])cc2)cs/c1=N/N=C1\C(=O)Nc2ccc(Br)cc21
GI50 (786-0): 11.8 µM (inactive)
GI50 (A498): 17.4 µM (inactive)
GI50 (A549): 15.9 µM (inactive)
GI50 (ACHN): 12.9 µM (inactive)
GI50 (BT-549): 22.6 µM (inactive)
GI50 (CAKI-1): 21.4 µM (inactive)
GI50 (CCRF-CEM): 17.8 µM (inactive)
GI50 (COLO 205): 13.6 µM (inactive)
GI50 (DU-145): 13.8 µM (inactive)
GI50 (EKVX): 24.7 µM (inactive)
GI50 (HCC 2998): 17.9 µM (inactive)
GI50 (HCT-116): 12.9 µM (inactive)
GI50 (HCT-15): 21.9 µM
GI50 (HL-60): 16.9 µM (inactive)
GI50 (HOP-62): 15.7 µM (inactive)
GI50 (HOP-92): 26 µM (inactive)
GI50 (HT-29): 13.3 µM (inactive)
GI50 (Hs-578T): 43.2 µM (inactive)
GI50 (IGROV-1): 19.1 µM (inactive)
GI50 (K562): 15.7 µM (inactive)
GI50 (KM12): 14.6 µM (inactive)
GI50 (LOX IMVI): 18.9 µM (inactive)
GI50 (M14): 12.1 µM (inactive)
GI50 (MCF7): 3.28 µM (inactive)
GI50 (MDA-MB-231): 15.7 µM (inactive)
GI50 (MDA-MB-435): 14.1 µM (inactive)
GI50 (MDA-N): 16.2 µM (inactive)
GI50 (MOLT-4): 7.43 µM (inactive)
GI50 (Malme-3M): 28.3 µM (inactive)
GI50 (NCI-H226): 21.1 µM (inactive)
GI50 (NCI-H23): 16.6 µM (inactive)
GI50 (NCI-H460): 14.6 µM (inactive)
GI50 (NCI-H522): 14.2 µM (inactive)
GI50 (NCI/ADR-RES): 17.1 µM (inactive)
GI50 (OVCAR-3): 15.5 µM (inactive)
GI50 (OVCAR-4): 12.6 µM (inactive)
GI50 (OVCAR-5): 30.5 µM (inactive)
GI50 (OVCAR-8): 30 µM (inactive)
GI50 (RXF 393): 8 µM (inactive)
GI50 (SF-268): 29.9 µM (inactive)
GI50 (SF-295): 22.9 µM (inactive)
GI50 (SF-539): 14 µM (inactive)
GI50 (SK-MEL-28): 29.4 µM (inactive)
GI50 (SK-MEL-5): 14.1 µM (inactive)
GI50 (SK-OV-3): 19.5 µM (inactive)
GI50 (SN12C): 3.78 µM (inactive)
GI50 (SNB-19): 21.8 µM (inactive)
GI50 (SNB-75): 20.3 µM (inactive)
GI50 (SW-620): 39.6 µM (inactive)
GI50 (T47D): 7.11 µM (inactive)
GI50 (TK-10): 12.3 µM (inactive)
GI50 (U-251): 10.4 µM (inactive)
GI50 (UACC-257): 18.2 µM (inactive)
GI50 (UACC-62): 19.6 µM (inactive)
GI50 (UO-31): 18.6 µM (inactive)

From ChEMBL document CHEMBL1201862, “PubChem BioAssay data set” (2004)
